Patent publication US12083202B2, “Lipophilic cosmetic compositions containing pelargonic acid esters” (Novamont S.p.A., priority 2015, dated 2024)

What was measured:
[1] = Pigment dispersion: wet point and flow point; assay type: physicochemical; conditions: for Fp (flow point), amount of ester oil needed / Wp (wet point), amount of ester oil needed: grams per 100 g of pigment, Black Iron Oxide CI77499
Source text: Black Iron Oxide particles (CI77499, commercially available as YPC335200 from Yipin) were dispersed in each of the ester oils of the present invention and in ester oil commonly used as cosmetic ingredients. Each sample of powder particles was wetted by the dropwise addition of one ester oil and then vigorously blended using a spatula until the wet point and the flow point were reached.
The wet point is defined as the minimum volume of dispersant solution to produce a soft coherent mass; the further minimum addition of dispersant solution to produce flow or falling off of the homogeneous mass from the vertical blade of a horizontally held spatula determines the flow point.
The amounts of dispersant solution (i.e. ester oil) needed to reach the wet point (Wp) and the flow point (Fp) were recorded and reported in the table below, expressed in grams per 100 g of pigment.

[2] = UV filters dispersion: dispersibility of a solid UV filter in ester oils; assay type: physicochemical; set-up: key to Filters dispersion t0 1% / Filters dispersion t0 10% / Filters dispersion t24 1% / Filters dispersion t24 10%: D=homogeneous dispersion; S=sediment deposit; conditions: for Filters dispersion t0 1%: 1% TiO2, storage 0 hours at 25° C.; for Filters dispersion t24 1%: 1% TiO2, storage 24 hours at 25° C.; for Filters dispersion t0 10%: 10% TiO2, storage 0 hours at 25° C.; for Filters dispersion t24 10%: 10% TiO2, storage 24 hours at 25° C.; for dispersion of Titania: in words, compared with reference solvents
Experimental: The dispersibility of a solid UV filter in different ester oils was tested using Titania (TiO2, commercially available as Titanio Biossido Anatasio from A.C.E.F.). Various ratios of filter/ester (1% and 10% TiO2) were prepared under stirring at 70° C. for 30 minutes. The dispersions were then observed after a storage period of 0 hours (t0) and 24 hours (t24) at ambient temperature (25° C.) to check for the formation of any sediment deposit. Results for each ester are shown in the table below (D=homogeneous dispersion; S=sediment deposit).

less solvent required in the final composition ([1]; from the minimum difference between Fp and Wp) | Fp (flow point), amount of ester oil needed [1] [g] | Wp (wet point), amount of ester oil needed [1] [g] | Filters dispersion t0 1% [2] | Filters dispersion t24 1% [2] | Filters dispersion t0 10% [2] | Filters dispersion t24 10% [2] | dispersion of Titania [2] | SMILES | dispersion properties ([1]; in words, compared with commonly used cosmetic ingredients)
about 30% | 100.00 | 60.00 | D | D | D | S/D | even better | CCCCCCCCC(=O)OCC(COC(=O)CCCCCCCC)OC(=O)CCCCCCCC [Glycerol tripelargonate] | even better than those of Caprylic/Capric Triglyceride
 | 145.00 | 50.00 | D | S | D | S |  | CC(C)CCCCCCOC(=O)CCCCCC(C)C [Isononyl Isononanoate, reference compound] | 
 | 166.00 | 61.00 | D | S/D | D | S/D |  | CCCCCCCCC(=O)OCC(C)(C)COC(=O)CCCCCCCC [Neopentyl glycol dipelargonate] | 
 | 132.00 | 62.00 | D | D | D | D | even better | CCCCCCCCC(=O)OCC(COC(=O)CCCCCCCC)(COC(=O)CCCCCCCC)COC(=O)CCCCCCCC [Pentaerythritol tetrapelargonate] | 
